# Experiments:
# HEK293T cells = assay: POST-IT^DC661-H1 target-ID by SILAC (LC-MS/MS, DC660 competition); type: cell-based, Homo sapiens; settings: heavy: 200 nM DC661-H1, light: DC661-H1 (200 nM) and DC660 (2 µM)
# Protocol: A stable HEK293T cells expressing the POST-IT system was generated using the PiggyBac transposon system. Briefly, HEK293T cells on a 60 mm dish were co-transfected with 8 µg of PB-puro-CMV-POST-IT-Tet-SBP^K4R-sPup^K61R-iresGFP and 2 µg of the Super PiggyBac Transposase expression vector (PB200PA-1, System Biosciences, USA). Four days later, cells were treated with 5 µg/ml puromycin for about 2 weeks. Media containing puromycin were changed every 3–4 days.
# The stable cell line was cultured in SILAC DMEM (280001200, Silantes, Germany) without arginine, lysine, and glutamine, supplemented with 10% dialyzed FBS (C3820-0100, VivaCell Biosciences, China) and 2 mM glutamine. The SILAC medium included 600 mg/l proline (P120032, aladdin, China) to prevent the conversion of arginine to proline ([Bendall et al., 2008]). […]
# The expression of POST-IT was induced by the addition of 100 ng/ml doxycycline. […] Cell debris was removed by centrifugation, and protein concentration was determined by the BCA assay. […]
# Excised gels were sliced into small pieces of ~1 mm^3, rinsed three times with Milli-Q water, decolorized with 50% acetonitrile and 100 mM NH4HCO3, and dehydrated with 100% acetonitrile. […] The resulting tryptic peptides were analyzed by LC-MS/MS at the Institute of Hydrobiology (Chinese Academy of Sciences, Wuhan, China). […]
# VPS37C-V5 = molecular target: T1, VPS37C-V5 (Homo sapiens, UniProt A5D8V6); assay: POST-IT labeling and streptavidin pulldown of VPS37C-V5 in HEK293T cells; type: cell-based; settings: 200 nM DC661-H1, 24 hr
# T1 construct: expressed in transfected cells; host or cells: HEK293T
# LC3-II [1] = assay: Autophagy inhibition by LC3-II western blot in A375 cells; type: cell-based, Homo sapiens; settings: 12 hr
# Source text: (§1) Cells transfected and/or treated with different compounds were harvested at the end of treatment.
# LC3-II [2] = assay: Autophagy inhibition by LC3-II western blot in HEK293T cells; type: cell-based, Homo sapiens; settings: 12 hr
# Source text: as §1
# T1 sequence (A5D8V6 whole entry): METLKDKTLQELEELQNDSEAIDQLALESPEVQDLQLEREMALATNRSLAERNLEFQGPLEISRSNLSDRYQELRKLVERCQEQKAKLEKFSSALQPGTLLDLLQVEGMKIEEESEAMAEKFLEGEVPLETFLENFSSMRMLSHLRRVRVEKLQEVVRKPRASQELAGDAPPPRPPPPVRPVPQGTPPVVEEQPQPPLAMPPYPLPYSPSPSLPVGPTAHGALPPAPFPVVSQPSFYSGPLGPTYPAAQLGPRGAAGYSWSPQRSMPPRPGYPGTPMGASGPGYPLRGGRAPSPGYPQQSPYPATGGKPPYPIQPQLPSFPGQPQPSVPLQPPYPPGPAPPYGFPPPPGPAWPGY
structure (smiles),measurement,setting,value
O=C(CN(CCCCCCNc1ccnc2cc(Cl)ccc12)CCCCCCNc1ccnc2cc(Cl)ccc12)NCCCCCNC(=O)OCCOCCOCCOC(=O)NCCOCCOCCCCCCCl [DC661-H1],target proteins identified by POST-IT^DC661-H1 (SILAC),HEK293T cells,identified several target proteins directly linked to autophagy regulation
same,enrichment of VPS37C-V5 after streptavidin pulldown,VPS37C-V5,substantially enriched
same,levels of LC3-II band (autophagy inhibition),LC3-II [1],significantly increased
same,levels of LC3-II band (autophagy inhibition),LC3-II [2],significantly increased

# Reference: publication PMC11677243, “Target protein identification in live cells and organisms with a non-diffusive proximity tagging system” (eLife, 2024)
